Results: PMC6766871 (International Journal of Cancer, 2019)
Read-outs that look alike come from different tables or passages of the source.

Assays:
[1] = tested on: FGFR1-amplified squamous NSCLC; conditions: initial clinical results; cited from earlier work
[2] = tested on: LXFL1121 human NSCLC PDX; test: antitumor efficacy, patient-derived LXFL1121 NSCLC xenograft in NMRI nu/nu mice
[3] = body weight monitoring in tumor-bearing mice; format: in vivo, mouse
[4] = tested on: LU299 human lung cancer PDX; test: antitumor efficacy, patient-derived LU299 lung cancer xenograft in nu/nu mice; conditions: 33 days
[5] = tested on: DMS-114 human SCLC xenograft; test: antitumor efficacy, DMS-114 lung cancer xenograft in NMRI nu/nu mice; conditions: for T/C volume: rogaratinib 50 mg/kg BID p.o., docetaxel 30 mg/kg Q7D i.v., carboplatin 80 mg/kg Q7D / paclitaxel 24 mg/kg Q7D i.p., 10 days
[6] = tested on: C51 colon tumors; test: antitumor efficacy, syngeneic C51 colon cancer model in BALB/cJ mice; conditions: for partial response (PR) rate (RECIST): 2/9 mice
[7] = tested on: NCI-H716 human colon cancer xenograft; test: antitumor efficacy, NCI-H716 colorectal xenograft in NMRI nu/nu mice; conditions: 50 mg/kg BID; 1/8 mice
[8] = tested on: p-ERK1/2 in UM-UC-3 cells; test: Western blot, ERK1/2 phosphorylation; format: cell-based, human; conditions: UM-UC-3, 0–10,000 nM
[9] = molecular target: T1, CSF1R (Homo sapiens, UniProt P07333); test: kinase inhibition assay; format: biochemical
[10] = tested on: pERK1/2 (T202/Y204,T185/Y187) in DMS-114 cells; test: FGF2-induced ERK1/2 phosphorylation, MSD-ELISA; format: cell-based; conditions: Homo sapiens, DMS-114, read-out: IC50 pERK1/2 (T202/Y204,T185/Y187)
[11] = molecular target: T2, FGFR2 (Homo sapiens, UniProt P21802); test: KINOMEscan competition binding
[12] = tested on: FGF2-stimulated HUVEC; test: HUVEC growth assay, FGF2-stimulated; format: cell-based; conditions: Homo sapiens, 72 h, read-out: IC50 inhibition of FGF2-stimulated growth
[13] = molecular target: TIE2 (Homo sapiens, UniProt Q02763); test: kinase inhibition assay; format: biochemical
[14] = molecular target: VEGFR1 (Homo sapiens, UniProt P17948); test: KINOMEscan competition binding
[15] = tested on: p-FGFR2 and p-ERK1/2 in NCI-H716 tumors; test: PK/PD, phosphorylation of FGFR2 and ERK1/2 in NCI-H716 tumor tissue; format: in vivo, mouse
[16] = tested on: p-ERK1/2 in NCI-H520 cells; test: Western blot, ERK1/2 phosphorylation; format: cell-based, human; conditions: NCI-H520, 0–10,000 nM
[17] = tested on: p-FGFR2 in NCI-H716 cells; test: Western blot, FGFR2 auto-phosphorylation; format: cell-based, human; conditions: NCI-H716, 100 nM
[18] = tested on: 77 non-kinase targets; test: PanLabs Safety screen, whole panel; conditions: 10 µM
[19] = tested on: pERK1/2 (T202/Y204,T185/Y187) in MFM-223 cells; test: FGF2-induced ERK1/2 phosphorylation, MSD-ELISA; format: cell-based; conditions: Homo sapiens, MFM-223, read-out: IC50 pERK1/2 (T202/Y204,T185/Y187)
[20] = molecular target: T2, FGFR2; test: radiometric kinase activity assay; format: biochemical
[21] = body weight monitoring in tumor-bearing rats; format: in vivo, rat; conditions: C51 model, nude rats, monotherapy
[22] = molecular target: T3, VEGFR3 (Homo sapiens, UniProt P35916); test: KINOMEscan competition binding
[23] = tested on: p-ERK1/2 in NCI-H1581 cells; test: Western blot, ERK1/2 phosphorylation; format: cell-based, human; conditions: NCI-H1581, 0–10,000 nM
[24] = plasma pharmacokinetics in NCI-H716 tumor-bearing NMRI nu/nu mice
[25] = tested on: 468 kinase targets; test: KINOMEscan profiling, kinase panel; format: binding; conditions: of 403 non-mutant kinases
[26] = tested on: C51 colon tumors; test: antitumor efficacy, C51 colon cancer model in nude rats
[27] = tested on: p-ERK1/2 in RT-112 cells; test: Western blot, ERK1/2 phosphorylation; format: cell-based, human; conditions: RT-112, 0–10,000 nM
[28] = tested on: pERK1/2 (T202/Y204,T185/Y187) in C51 cells; test: ERK1/2 phosphorylation, MSD-ELISA; format: cell-based; conditions: Mus musculus, read-out: IC50 pERK1/2 (T202/Y204,T185/Y187)
[29] = maximally tolerated dose in Balb/cJ mice; format: in vivo, mouse
[30] = tested on: p-ERK1/2 in MDA-MB-453 cells; test: Western blot, ERK1/2 phosphorylation; format: cell-based, human; conditions: MDA-MB-453, 0–1,000 nM, 2 h
[31] = tested on: p-FGFR4 in MDA-MB-453 cells; test: Western blot, FGFR4 auto-phosphorylation; format: cell-based, human; conditions: MDA-MB-453, 0–1,000 nM, 2 h
[32] = tested on: VEGF-A-stimulated HUVEC; test: HUVEC growth assay, VEGF-A-stimulated; format: cell-based, human; conditions: for IC50: Homo sapiens, 72 h
[33] = molecular target: T3, VEGFR3; test: kinase inhibition assay; format: biochemical
[34] = tested on: p-ERK1/2 in NCI-H716 cells; test: Western blot, ERK1/2 phosphorylation; format: cell-based, human; conditions: NCI-H716, 100 nM
[35] = molecular target: T1, CSF1R; test: KINOMEscan competition binding; conditions: 100 nM rogaratinib

T1 sequence (P07333 20-972): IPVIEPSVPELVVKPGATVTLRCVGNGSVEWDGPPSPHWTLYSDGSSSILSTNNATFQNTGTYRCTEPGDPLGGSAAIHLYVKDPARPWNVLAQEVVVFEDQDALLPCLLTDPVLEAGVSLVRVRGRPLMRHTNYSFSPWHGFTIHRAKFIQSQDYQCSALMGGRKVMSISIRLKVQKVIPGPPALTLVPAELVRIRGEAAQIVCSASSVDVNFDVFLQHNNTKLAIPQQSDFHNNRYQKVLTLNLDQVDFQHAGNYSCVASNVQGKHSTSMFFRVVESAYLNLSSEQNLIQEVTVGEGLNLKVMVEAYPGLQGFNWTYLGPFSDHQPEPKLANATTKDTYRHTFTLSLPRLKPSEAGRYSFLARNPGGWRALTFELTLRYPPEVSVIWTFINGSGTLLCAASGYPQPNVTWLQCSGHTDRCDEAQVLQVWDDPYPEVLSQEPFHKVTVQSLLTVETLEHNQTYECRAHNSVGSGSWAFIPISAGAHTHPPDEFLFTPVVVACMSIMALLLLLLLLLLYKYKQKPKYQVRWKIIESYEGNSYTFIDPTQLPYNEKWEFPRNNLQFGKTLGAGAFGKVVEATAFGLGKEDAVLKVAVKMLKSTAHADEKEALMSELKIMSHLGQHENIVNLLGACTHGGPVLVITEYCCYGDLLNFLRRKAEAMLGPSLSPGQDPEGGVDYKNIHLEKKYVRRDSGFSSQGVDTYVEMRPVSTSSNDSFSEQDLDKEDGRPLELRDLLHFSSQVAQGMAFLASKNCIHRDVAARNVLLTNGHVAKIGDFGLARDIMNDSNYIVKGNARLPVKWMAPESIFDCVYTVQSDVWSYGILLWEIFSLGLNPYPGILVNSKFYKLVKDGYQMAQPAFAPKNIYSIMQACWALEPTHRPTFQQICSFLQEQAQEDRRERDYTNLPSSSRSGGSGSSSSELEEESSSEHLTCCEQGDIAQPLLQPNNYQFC
VEGFR1, sequence (P17948 27-1338): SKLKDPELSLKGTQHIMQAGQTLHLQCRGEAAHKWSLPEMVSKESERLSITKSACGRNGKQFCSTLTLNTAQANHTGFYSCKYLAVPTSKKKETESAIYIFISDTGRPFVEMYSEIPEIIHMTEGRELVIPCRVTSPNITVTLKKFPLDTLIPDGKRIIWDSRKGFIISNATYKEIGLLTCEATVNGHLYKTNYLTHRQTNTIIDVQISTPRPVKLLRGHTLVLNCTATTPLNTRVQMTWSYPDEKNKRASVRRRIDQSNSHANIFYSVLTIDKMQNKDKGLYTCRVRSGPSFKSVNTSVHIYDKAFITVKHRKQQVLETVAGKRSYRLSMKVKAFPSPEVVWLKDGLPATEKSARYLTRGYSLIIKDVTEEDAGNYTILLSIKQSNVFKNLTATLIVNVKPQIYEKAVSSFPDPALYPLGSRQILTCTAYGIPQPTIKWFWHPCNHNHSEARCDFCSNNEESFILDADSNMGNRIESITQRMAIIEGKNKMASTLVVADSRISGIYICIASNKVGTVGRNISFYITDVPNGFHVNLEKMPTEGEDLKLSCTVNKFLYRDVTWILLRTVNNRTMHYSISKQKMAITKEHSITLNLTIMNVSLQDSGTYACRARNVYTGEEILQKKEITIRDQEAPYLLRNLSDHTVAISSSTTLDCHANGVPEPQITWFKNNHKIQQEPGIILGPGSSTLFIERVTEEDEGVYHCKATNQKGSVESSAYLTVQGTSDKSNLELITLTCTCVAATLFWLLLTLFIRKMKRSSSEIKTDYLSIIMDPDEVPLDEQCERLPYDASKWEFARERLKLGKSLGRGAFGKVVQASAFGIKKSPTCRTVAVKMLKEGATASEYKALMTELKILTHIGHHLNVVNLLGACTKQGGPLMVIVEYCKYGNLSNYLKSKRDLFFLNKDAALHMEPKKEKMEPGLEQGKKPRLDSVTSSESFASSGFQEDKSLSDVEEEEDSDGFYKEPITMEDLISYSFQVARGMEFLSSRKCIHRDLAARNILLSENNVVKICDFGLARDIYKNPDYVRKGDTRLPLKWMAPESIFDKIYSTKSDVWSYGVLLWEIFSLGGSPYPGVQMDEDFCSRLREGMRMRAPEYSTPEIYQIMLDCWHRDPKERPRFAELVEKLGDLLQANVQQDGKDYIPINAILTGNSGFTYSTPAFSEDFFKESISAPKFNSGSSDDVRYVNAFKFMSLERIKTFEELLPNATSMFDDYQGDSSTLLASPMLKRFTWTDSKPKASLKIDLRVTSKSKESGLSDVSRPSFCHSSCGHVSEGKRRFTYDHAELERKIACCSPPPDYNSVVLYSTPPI
T3 sequence (P35916 25-1363): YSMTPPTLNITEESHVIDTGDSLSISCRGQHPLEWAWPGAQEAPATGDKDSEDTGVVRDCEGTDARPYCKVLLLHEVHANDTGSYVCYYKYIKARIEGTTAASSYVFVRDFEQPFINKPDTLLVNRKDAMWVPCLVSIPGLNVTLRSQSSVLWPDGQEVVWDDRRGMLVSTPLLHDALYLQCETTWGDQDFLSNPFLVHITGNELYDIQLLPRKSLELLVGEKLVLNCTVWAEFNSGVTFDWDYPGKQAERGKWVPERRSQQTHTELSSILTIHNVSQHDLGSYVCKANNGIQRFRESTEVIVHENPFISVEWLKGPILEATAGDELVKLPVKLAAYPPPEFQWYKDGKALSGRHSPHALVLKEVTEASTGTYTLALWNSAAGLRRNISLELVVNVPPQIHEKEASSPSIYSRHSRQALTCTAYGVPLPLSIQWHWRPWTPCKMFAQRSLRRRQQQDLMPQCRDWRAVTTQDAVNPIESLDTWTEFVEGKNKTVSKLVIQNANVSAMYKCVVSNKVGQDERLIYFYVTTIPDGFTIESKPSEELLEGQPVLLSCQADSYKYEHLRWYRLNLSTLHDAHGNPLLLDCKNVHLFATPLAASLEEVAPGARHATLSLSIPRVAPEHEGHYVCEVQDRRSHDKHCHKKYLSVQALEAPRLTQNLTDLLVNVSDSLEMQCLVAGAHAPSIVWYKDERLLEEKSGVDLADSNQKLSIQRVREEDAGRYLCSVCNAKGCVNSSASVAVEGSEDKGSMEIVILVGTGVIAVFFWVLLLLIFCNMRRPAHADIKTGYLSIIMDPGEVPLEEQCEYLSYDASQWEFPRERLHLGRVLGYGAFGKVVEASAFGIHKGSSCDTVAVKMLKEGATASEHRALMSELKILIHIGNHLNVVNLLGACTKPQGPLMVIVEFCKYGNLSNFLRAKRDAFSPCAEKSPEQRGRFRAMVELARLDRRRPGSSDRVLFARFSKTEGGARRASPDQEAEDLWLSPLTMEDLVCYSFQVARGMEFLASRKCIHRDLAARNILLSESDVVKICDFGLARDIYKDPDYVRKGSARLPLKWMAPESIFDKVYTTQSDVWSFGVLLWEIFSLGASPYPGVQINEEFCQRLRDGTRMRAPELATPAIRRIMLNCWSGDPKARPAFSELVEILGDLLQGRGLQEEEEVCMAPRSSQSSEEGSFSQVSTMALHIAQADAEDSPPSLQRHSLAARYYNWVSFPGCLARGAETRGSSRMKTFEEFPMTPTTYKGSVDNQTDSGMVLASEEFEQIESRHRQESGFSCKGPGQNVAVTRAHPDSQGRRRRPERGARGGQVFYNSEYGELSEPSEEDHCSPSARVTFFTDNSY
T2 sequence (P21802 481-770 limits assumed): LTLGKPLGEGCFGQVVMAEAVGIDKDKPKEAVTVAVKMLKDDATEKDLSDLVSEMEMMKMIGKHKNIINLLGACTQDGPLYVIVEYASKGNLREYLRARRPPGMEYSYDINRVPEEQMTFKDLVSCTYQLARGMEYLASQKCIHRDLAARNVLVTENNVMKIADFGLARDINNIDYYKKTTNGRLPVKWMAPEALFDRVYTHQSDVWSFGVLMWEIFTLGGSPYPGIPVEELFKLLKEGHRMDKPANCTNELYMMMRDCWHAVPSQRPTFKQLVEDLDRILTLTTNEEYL
TIE2, sequence (Q02763 23-1124): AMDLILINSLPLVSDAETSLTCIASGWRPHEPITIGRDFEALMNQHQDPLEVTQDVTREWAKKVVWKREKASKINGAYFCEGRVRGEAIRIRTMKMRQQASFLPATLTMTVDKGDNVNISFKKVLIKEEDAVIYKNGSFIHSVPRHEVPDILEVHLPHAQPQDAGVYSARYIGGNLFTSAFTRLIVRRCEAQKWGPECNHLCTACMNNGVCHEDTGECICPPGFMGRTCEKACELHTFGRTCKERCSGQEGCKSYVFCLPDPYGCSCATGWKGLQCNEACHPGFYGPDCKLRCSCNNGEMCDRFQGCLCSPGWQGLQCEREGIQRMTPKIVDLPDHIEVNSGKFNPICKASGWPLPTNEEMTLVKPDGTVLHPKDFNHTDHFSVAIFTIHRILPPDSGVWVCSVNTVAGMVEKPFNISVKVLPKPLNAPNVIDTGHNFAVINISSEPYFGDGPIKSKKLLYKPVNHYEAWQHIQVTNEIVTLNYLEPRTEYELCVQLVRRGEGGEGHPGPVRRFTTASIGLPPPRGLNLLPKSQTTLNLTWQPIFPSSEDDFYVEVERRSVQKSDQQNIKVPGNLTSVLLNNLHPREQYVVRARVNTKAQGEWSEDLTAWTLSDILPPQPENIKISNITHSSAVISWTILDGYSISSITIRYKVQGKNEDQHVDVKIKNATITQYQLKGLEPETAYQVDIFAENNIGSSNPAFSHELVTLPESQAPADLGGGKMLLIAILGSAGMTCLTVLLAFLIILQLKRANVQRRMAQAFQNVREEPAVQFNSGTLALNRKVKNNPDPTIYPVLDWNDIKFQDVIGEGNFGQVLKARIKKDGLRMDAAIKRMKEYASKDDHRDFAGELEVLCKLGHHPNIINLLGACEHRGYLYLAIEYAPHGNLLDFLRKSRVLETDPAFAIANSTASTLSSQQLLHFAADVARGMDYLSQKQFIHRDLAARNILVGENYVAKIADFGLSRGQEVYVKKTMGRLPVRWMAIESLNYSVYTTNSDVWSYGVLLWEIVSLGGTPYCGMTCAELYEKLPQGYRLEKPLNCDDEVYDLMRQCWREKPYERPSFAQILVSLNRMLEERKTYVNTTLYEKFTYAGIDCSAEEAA

Structure (SMILES): CCN1CCN(c2ccc(Nc3cc(N(C)C(=O)Nc4c(Cl)c(OC)cc(OC)c4Cl)ncn3)cc2)CC1 [BGJ398, 3‐(2,6‐dichloro‐3,5‐dimethoxy‐phenyl)‐1‐{6‐[4‐(4‐ethyl‐piperazin‐1‐yl)‐phenylamino]‐pyrimidin‐4‐yl}‐1‐methyl‐urea]
- response rate [1]: 11%

Structure (SMILES): CC(=O)O[C@@]12CO[C@@H]1C[C@H](O)[C@@]1(C)C(=O)[C@H](O)C3=C(C)[C@@H](OC(=O)[C@H](O)[C@@H](NC(=O)OC(C)(C)C)c4ccccc4)C[C@@](O)([C@@H](OC(=O)c4ccccc4)[C@H]21)C3(C)C [docetaxel, reference compound]
- tumor response post-treatment ([2]; drug-free observation period after treatment): tumor regrowth was observed
- maximum body weight loss ([3]; DMS-114 model): 2.4%
- maximum body weight losses ([3]; LU299 model): 14.1%
- PRs (RECIST) ([4]; rogaratinib 50 mg/kg BID, docetaxel Q7D i.v., n=10): 60%
- T/C volume [5]: 0.27
- PR rate ([5]; rogaratinib 50 mg/kg BID, docetaxel 30 mg/kg Q7D, carboplatin 80 mg/kg Q7D / paclitaxel 24 mg/kg Q7D): 40%

Structure (SMILES): COCc1c(-c2cc3cc(C)cc(OC)c3s2)c2c(N)ncnn2c1CN1CCNC(=O)C1 [rogaratinib, 4‐{[4‐amino‐6‐(methoxymethyl)‐5‐(7‐methoxy‐5‐methyl‐1‐benzothiophen‐2‐yl)pyrrolo[2,1‐f][1,2,4]triazin‐7‐yl]methyl}piperazin‐2‐one]
- antitumor efficacy ([6]; 25 mg/kg QD p.o., 13 days): not efficacious
- partial response (PR) rate (RECIST) ([6]; 50 mg/kg QD): 22%
- stable disease (SD) rate (RECIST) ([6]; 75 mg/kg QD, 1/9 mice): 11%
- partial response (PR) rate (RECIST) ([6]; 75 mg/kg QD): 22%
- partial responses (PR) [7]: 12.5%
- T/C volume ([2]; 50 mg/kg BID p.o., 22 days): 0.26
- inhibition of ERK1/2 phosphorylation [8]: less sensitive
- IC50 [9]: 166 nM
- IC50 [10]: 20 nM
- Kd [11]: 5 nM
- body weight losses ([3]; C51 model, mice, monotherapy): ≤ 10%
- maximum body weight loss ([3]; DMS-114 model): 5%
- body weight losses ([3]; LU299 PDX model): ≤ 10%
- body weight losses ([3]; LXFL1121 PDX model): ≤ 10%
- maximum body weight loss ([3]; NCI-H716 model): 5.2%
- IC50 [12]: 16 nM
- IC50 [13]: 1300 nM
- Kd [14]: 190 nM
- binding affinity to VEGFRs lower compared to FGFR1 ([14]; VEGFR1, VEGFR3 vs FGFR1 Kd): about 100 fold
- T/C volume ([4]; 50 mg/kg BID p.o.): 0.33
- FGFR2 and ERK1/2 phosphorylation levels in tumor ([15]; 24-h time point after single dose 35, 50 or 65 mg/kg): returned to levels similar to the vehicle control
- FGFR2 and ERK1/2 phosphorylation levels in tumor ([15]; for at least five hours after single dose 35, 50 or 65 mg/kg): strong inhibition of FGFR signaling
- inhibition of ERK1/2 phosphorylation [16]: less sensitive
- auto-phosphorylation of FGFR2 [17]: effectively inhibited
- number of significant hits in a set of 77 non-kinase targets [18]: 3
- T/C volume [5]: 0.34
- IC50 [19]: 11 nM
- IC50 [20]: < 1 nM
- body weight losses [21]: ≤ 10%
- Kd [22]: 150 nM
- inhibition of ERK1/2 phosphorylation [23]: potent inhibition
- unbound Cmax concentration in plasma ([24]; single dose 35 mg/kg after 10-day drug-free period): 123 nM
- unbound Cmax concentration in plasma ([24]; single dose 50 mg/kg after 10-day drug-free period): 294 nM
- unbound Cmax concentration in plasma ([24]; single dose 65 mg/kg after 10-day drug-free period): 357 nM
- number of additional kinases besides FGFR1-4 with competition binding >65% ([25]; 100 nM rogaratinib): 4
- number of additional kinases besides FGFR1-4 with competition binding >65% ([25]; 1 μM rogaratinib): 18
- complete responses (CR) (RECIST) ([26]; 10 mg/kg QD, 2/8): 25%
- stable disease (SD) (RECIST) ([26]; 50 mg/kg QD, 1/8): 12.5%
- complete responses (CR) (RECIST) ([26]; 50 mg/kg QD, 3/8): 37.5%
- inhibition of ERK1/2 phosphorylation [27]: potent inhibition
- IC50 [28]: 280 nM
- maximally tolerated dose ([29]; BID): 50 mg/kg
- maximally tolerated dose ([29]; QD): 75 mg/kg
- ERK1/2 phosphorylation [30]: preventing ERK1/2 phosphorylation in the same concentration range
- auto-phosphorylation of FGFR4 [31]: inhibited auto‐phosphorylation of FGFR4
- IC50 VEGF-A-stimulated growth higher than FGF2-stimulated growth ([32]; HUVEC): 28 fold
- IC50 ([32]; read-out: −logIC50 inhibition of VEGF-A-stimulated growth (converted)): 501 nM
- IC50 ([32]; HUVEC, read-out: IC50 inhibition of VEGF-A-stimulated growth): 453 nM
- IC50 [33]: 130 nM
- phosphorylation of ERK1/2 [34]: effectively inhibited
- inhibition of binding to CSF1R in KINOMEscan profiling [35]: strong inhibition
